Legend:
[1] = target: T1, CDK9 (Homo sapiens, UniProt P50750); experiment: CDK protein degradation activity (Western blotting), CDK9; format: cell-based; settings: MDA-MB-231 cells, 16 hours, Western blot
T1 construct: endogenous in cells; host or cells: MDA-MB-231
In short: (§1)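 Breast cancer line MDA-MB-231, 16 h compound treatment (100 nM–10 μM final, three doses). Immunoblot quantification of CDK2/CDK9 versus tubulin, normalized to DMSO control.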

[2] = target: T2, CDK2 (Homo sapiens, UniProt P24941); experiment: CDK protein degradation activity (Western blotting), CDK2; format: cell-based; settings: MDA-MB-231 cells, 16 hours, Western blot
T2 construct: endogenous in cells; host or cells: MDA-MB-231
In short: as §1

T1 sequence (P50750 whole entry): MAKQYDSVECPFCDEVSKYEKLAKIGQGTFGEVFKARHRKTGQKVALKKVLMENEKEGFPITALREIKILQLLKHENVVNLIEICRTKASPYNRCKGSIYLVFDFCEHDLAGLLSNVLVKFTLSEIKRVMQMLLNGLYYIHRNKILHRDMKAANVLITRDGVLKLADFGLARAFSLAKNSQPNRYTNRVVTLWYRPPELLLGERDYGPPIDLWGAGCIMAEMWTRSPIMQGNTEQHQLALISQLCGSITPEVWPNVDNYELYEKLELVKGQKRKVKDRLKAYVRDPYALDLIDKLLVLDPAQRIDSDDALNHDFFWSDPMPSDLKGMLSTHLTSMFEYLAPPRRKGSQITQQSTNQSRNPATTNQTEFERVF

Structure (SMILES) | Enzyme degradation CDK9 (% remaining) @ 0.1 μM [1] | Enzyme degradation CDK9 (% remaining) @ 1 μM [1] | Enzyme degradation CDK9 (% remaining) @ 10 μM [1] | Enzyme degradation CDK2 (% remaining) @ 0.1 μM [2] | Enzyme degradation CDK2 (% remaining) @ 1 μM [2] | Enzyme degradation CDK2 (% remaining) @ 10 μM [2]
O=C1CC[C@@H](c2cccc(OCC(=O)N3CC(CN4CCC5(CC4)CC(N4CCN(c6ccc(Nc7ncnc8c7ncn8[C@H]7C[C@@H](NC(=O)Cc8ccccc8)C7)cc6)CC4)C5)C3)c2)C(=O)N1 [Compound 276, N-((1s,3s)-3-(6-((4-(4-(7-((1-(2-(3-(2,6-dioxopiperidin-3-yl)phenoxy)acetyl)azetidin-3-yl)methyl)-7-azaspiro[3.5]nonan-2-yl)piperazin-1-yl)phenyl)amino)-9H-purin-9-yl)cyclobutyl)-2-phenylacetamide] | 10% | 0% | 0% | 30% | 20% | 20%
O=C1CCC(N2C(=O)c3cccc(NCC(=O)N4CC(N5CCC6(CC5)CC(N5CCN(c7ccc(Nc8ncnc9c8ncn9[C@H]8C[C@@H](NC(=O)Cc9ccccc9)C8)cc7)CC5)C6)C4)c3C2=O)C(=O)N1 (stereo partly drawn) [Compound 277, N-((1s,3s)-3-(6-((4-(4-(7-(1-((2-(2,6-dioxopiperidin-3-yl)-1,3-dioxoisoindolin-4-yl)glycyl)azetidin-3-yl)-7-azaspiro[3.5]nonan-2-yl)piperazin-1-yl)phenyl)amino)-9H-purin-9-yl)cyclobutyl)-2-phenylacetamide] | 0/0/0% | 0/0/0% | 0/0/0% | 30/30/30% | 30/30/30% | 30/30/30%
O=C1CC[C@H](N2C(=O)c3ccc(NCC(=O)N4CC(N5CCC6(CC5)CC(N5CCN(c7ccc(Nc8ncnc9c8ncn9C8CC(NC(=O)Cc9ccccc9)C8)cc7)CC5)C6)C4)cc3C2=O)C(=O)N1 (stereo partly drawn) [Compound 278, N-((1s,3s)-3-(6-((4-(4-(7-(1-((2-(2,6-dioxopiperidin-3-yl)-1,3-dioxoisoindolin-5-yl)glycyl)azetidin-3-yl)-7-azaspiro[3.5]nonan-2-yl)piperazin-1-yl)phenyl)amino)-9H-purin-9-yl)cyclobutyl)-2-phenylacetamide] | 10% | 0% | 0% | 50/50/50% | 50/50/50% | 50/50/50%
O=C1CC[C@H](N2C(=O)c3cccc(N4CC(CN5CCC6(CC5)CC(N5CCN(c7ccc(Nc8ncnc9c8ncn9[C@H]8C[C@@H](NC(=O)Cc9ccccc9)C8)cc7)CC5)C6)C4)c3C2=O)C(=O)N1 [Compound 279, N-((1s,3s)-3-(6-((4-(4-(7-((1-(2-(2,6-dioxopiperidin-3-yl)-1,3-dioxoisoindolin-4-yl)azetidin-3-yl)methyl)-7-azaspiro[3.5]nonan-2-yl)piperazin-1-yl)phenyl)amino)-9H-purin-9-yl)cyclobutyl)-2-phenylacetamide] | 40% | 10% | 10% | 50% | 40% | 40%
COc1ccc(C(=O)N2CC(CN3CCC4(CC3)CC(N3CCN(c5ccc(Nc6ncnc7c6ncn7[C@H]6C[C@@H](NC(=O)Cc7ccccc7)C6)cc5)CC3)C4)C2)cc1N1CCC(=O)NC1=O [Compound 280, N-((1s,3s)-3-(6-((4-(4-(7-((1-(3-(2,4-dioxotetrahydropyrimidin-1(2H)-yl)-4-methoxybenzoyl)azetidin-3-yl)methyl)-7-azaspiro[3.5]nonan-2-yl)piperazin-1-yl)phenyl)amino)-9H-purin-9-yl)cyclobutyl)-2-phenylacetamide] | 50% | 10% | 10% | 50% | 30% | 30%
O=C1CC[C@H](N2C(=O)c3cccc(OCC(=O)N4CCC(CN5CCC(c6ccc(Nc7ncnc8c7ncn8[C@H]7C[C@@H](NC(=O)Cc8ccccc8)C7)cc6)CC5)CC4)c3C2=O)C(=O)N1 [Compound 287, N-((1s,3s)-3-(6-((4-(1-((1-(2-((2-(2,6-dioxopiperidin-3-yl)-1,3-dioxoisoindolin-4-yl)oxy)acetyl)piperidin-4-yl)methyl)piperidin-4-yl)phenyl)amino)-9H-purin-9-yl)cyclobutyl)-2-phenylacetamide] | 0/0/0% | 0/0/0% | 0/0/0% | 0/0/0% | 0/0/0% | 0/0/0%
O=C1CCC(N2C(=O)c3cccc(NCC(=O)N4CCC(CN5CCC(c6ccc(Nc7ncnc8c7ncn8[C@H]7C[C@@H](NC(=O)Cc8ccccc8)C7)cc6)CC5)CC4)c3C2=O)C(=O)N1 (stereo partly drawn) [Compound 288, N-((1s,3s)-3-(6-((4-(1-((1-((2-(2,6-dioxopiperidin-3-yl)-1,3-dioxoisoindolin-4-yl)glycyl)piperidin-4-yl)methyl)piperidin-4-yl)phenyl)amino)-9H-purin-9-yl)cyclobutyl)-2-phenylacetamide] | 0/0/0% | 0/0/0% | 0/0/0% | 10% | 20% | 20%
O=C1CC[C@H](N2C(=O)c3ccc(OCC(=O)N4CCC(CN5CCC(c6ccc(Nc7ncnc8c7ncn8C7CC(NC(=O)Cc8ccccc8)C7)cc6)CC5)CC4)cc3C2=O)C(=O)N1 (stereo partly drawn) [Compound 289, N-((1s,3s)-3-(6-((4-(1-((1-(2-((2-(2,6-dioxopiperidin-3-yl)-1,3-dioxoisoindolin-5-yl)oxy)acetyl)piperidin-4-yl)methyl)piperidin-4-yl)phenyl)amino)-9H-purin-9-yl)cyclobutyl)-2-phenylacetamide] | 30% | 0% | 0% | 40% | 60% | 70%

Continued, values first:

Enzyme degradation CDK9 (% remaining) @ 0.1 μM [1] | Enzyme degradation CDK9 (% remaining) @ 1 μM [1] | Enzyme degradation CDK9 (% remaining) @ 10 μM [1] | Enzyme degradation CDK2 (% remaining) @ 0.1 μM [2] | Enzyme degradation CDK2 (% remaining) @ 1 μM [2] | Enzyme degradation CDK2 (% remaining) @ 10 μM [2] | Structure (SMILES)
0/0/0% | 0/0/0% | 0/0/0% | 30% | 50% | 50% | O=C1CC[C@@H](c2ccc(OCC(=O)N3CCC(CN4CCC(c5ccc(Nc6ncnc7c6ncn7C6CC(NC(=O)Cc7ccccc7)C6)cc5)CC4)CC3)cc2)C(=O)N1 (stereo partly drawn) [Compound 281, N-((1s,3s)-3-(6-((4-(1-((1-(2-(4-(2,6-dioxopiperidin-3-yl)phenoxy)acetyl)piperidin-4-yl)methyl)piperidin-4-yl)phenyl)amino)-9H-purin-9-yl)cyclobutyl)-2-phenylacetamide]
0/0/0% | 0/0/0% | 0/0/0% | 10% | 20% | 20% | O=C1CC[C@@H](c2cccc(OCC(=O)N3CCC(CN4CCC(c5ccc(Nc6ncnc7c6ncn7C6CC(NC(=O)Cc7ccccc7)C6)cc5)CC4)CC3)c2)C(=O)N1 (stereo partly drawn) [Compound 282, N-((1s,3s)-3-(6-((4-(1-((1-(2-(3-(2,6-dioxopiperidin-3-yl)phenoxy)acetyl)piperidin-4-yl)methyl)piperidin-4-yl)phenyl)amino)-9H-purin-9-yl)cyclobutyl)-2-phenylacetamide]
0/0/0% | 0/0/0% | 0/0/0% | 40% | 50% | 60% | O=C1CC[C@@H](c2ccc(OCC(=O)N3CCC4(CC3)CC(N3CCC(c5ccc(Nc6ncnc7c6ncn7C6CC(NC(=O)Cc7ccccc7)C6)cc5)CC3)C4)cc2)C(=O)N1 (stereo partly drawn) [Compound 284, N-((1s,3s)-3-(6-((4-(1-(7-(2-(4-(2,6-dioxopiperidin-3-yl)phenoxy)acetyl)-7-azaspiro[3.5]nonan-2-yl)piperidin-4-yl)phenyl)amino)-9H-purin-9-yl)cyclobutyl)-2-phenylacetamide]
0/0/0% | 0/0/0% | 0/0/0% | 10% | 20% | 20% | O=C1CC[C@@H](c2cccc(OCC(=O)N3CCC4(CC3)CC(N3CCC(c5ccc(Nc6ncnc7c6ncn7C6CC(NC(=O)Cc7ccccc7)C6)cc5)CC3)C4)c2)C(=O)N1 (stereo partly drawn) [Compound 285, N-((1s,3s)-3-(6-((4-(1-(7-(2-(3-(2,6-dioxopiperidin-3-yl)phenoxy)acetyl)-7-azaspiro[3.5]nonan-2-yl)piperidin-4-yl)phenyl)amino)-9H-purin-9-yl)cyclobutyl)-2-phenylacetamide]
40% | 30% | 30% | 40% | 60% | 70% | COc1ccc(C(=O)N2CCC3(CC2)CC(N2CCC(c4ccc(Nc5ncnc6c5ncn6[C@H]5C[C@@H](NC(=O)Cc6ccccc6)C5)cc4)CC2)C3)cc1N1CCC(=O)NC1=O [Compound 286, N-((1s,3s)-3-(6-((4-(1-(7-(3-(2,4-dioxotetrahydropyrimidin-1(2H)-yl)-4-methoxybenzoyl)-7-azaspiro[3.5]nonan-2-yl)piperidin-4-yl)phenyl)amino)-9H-purin-9-yl)cyclobutyl)-2-phenylacetamide]

Reference: US20260125382A1, “COMPOUNDS FOR INHIBITING OR DEGRADING CDK2 AND/OR CDK9 AND MEDICINAL USE THEREOF” (KOREA RESEARCH INSTITUTE OF CHEMICAL TECHNOLOGY, priority 2022, published 2026)
